Legend:
GmITPK2 = target: T1, GmITPK2 (Glycine max, UniProt A7X665); experiment: Ins; type: biochemical; details: 1 mM ADP, pH 7.2, 25 °C
T1 sequence (A7X665 1-315): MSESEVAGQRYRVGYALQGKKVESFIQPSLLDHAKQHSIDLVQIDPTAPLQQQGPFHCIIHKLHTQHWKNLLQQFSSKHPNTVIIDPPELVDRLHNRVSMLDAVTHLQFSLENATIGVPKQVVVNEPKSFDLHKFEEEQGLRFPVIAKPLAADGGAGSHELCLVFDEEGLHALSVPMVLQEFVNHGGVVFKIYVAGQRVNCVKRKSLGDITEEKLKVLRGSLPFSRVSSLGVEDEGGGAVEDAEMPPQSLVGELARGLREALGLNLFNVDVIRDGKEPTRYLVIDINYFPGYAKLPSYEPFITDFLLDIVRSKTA

GmITPK1 = target: T2, GmITPK1 (Glycine max, UniProt A7X657); experiment: InsP6 kinase activity assay; type: biochemical; details: 1 mM ATP, pH 7.2, 25 °C
T2 sequence (A7X657 1-339): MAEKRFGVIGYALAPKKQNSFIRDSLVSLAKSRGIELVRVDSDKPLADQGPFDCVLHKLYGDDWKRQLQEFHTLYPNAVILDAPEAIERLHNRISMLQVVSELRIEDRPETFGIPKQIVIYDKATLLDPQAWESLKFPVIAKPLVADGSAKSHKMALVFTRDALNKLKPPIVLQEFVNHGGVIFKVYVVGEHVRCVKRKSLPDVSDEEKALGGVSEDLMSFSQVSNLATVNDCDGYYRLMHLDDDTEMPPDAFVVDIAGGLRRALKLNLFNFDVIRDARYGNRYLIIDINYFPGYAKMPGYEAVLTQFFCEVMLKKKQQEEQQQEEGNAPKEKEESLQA

SMILES | Ins(1,3,4,5,6)P5 phosphatase activity assay (GmITPK2) | InsP6 kinase activity assay (GmITPK1)
O=P(O)(O)O[C@@H]1[C@@H](OP(=O)(O)O)[C@H](OP(=O)(O)O)[C@H](O)[C@H](OP(=O)(O)O)[C@H]1OP(=O)(O)O [Ins(1,3,4,5,6)P5] | GmITPK2 exhibited the higher activity | 
O=P(O)(O)O[C@H]1[C@H](OP(=O)(O)O)[C@@H](OP(=O)(O)O)[C@H](OP(=O)(O)O)[C@@H](OP(=O)(O)O)[C@H]1OP(=O)(O)O [InsP6] |  | recombinant His6MBP-GmITPK1 is an active InsP6 kinase

Source: article PMC9202514 (FASEB journal : official publication of the Federation of …, 2022)
